# From article PMC5550455, “Unusual Inner-Salt Guaiazulene Alkaloids and bis-Sesquiterpene from the South China Sea Gorgonian Muriceides collaris” (Scientific Reports, 2017)
# Where two headings read alike, the source gives them in different places.
# Assays:
# [1] = test system: K562 human tumor cell line; assay: Cytotoxicity assay, MTT method, K562; type: cell-based
# From the text: (§1) A frozen specimen of Muriceides collaris (9.6 kg, wet weight) was homogenized and then extracted with MeOH four times (each time, 3 days) at room temperature. The combined solutions were concentrated in vacuo and the concentrated extract was subsequently desalted by redissolving with MeOH to yield a residue (221 g). The crude extract was subjected to silica gel vacuum liquid chromatography (VLC), eluting with a gradient of petroleum/acetone (from 10:0 to 1:1, v:v) and subsequently CH2Cl2/MeOH (from 20:1 to 0:1, v-v) to obtain nine fractions (Fr.A−Fr.I). Each fraction was detected by TLC, and was tested for their cytotoxicity against HeLa and K562 cell lines at 50 μg/mL. […] Fr.G (3.5 g) was then subjected to a Sephadex LH-20 column eluted with CH2Cl2/MeOH (1:1, v/v) to give […]. Fr.G-3 (1.018 g) was separated by silica gel CC (CH2Cl2/MeOH, 30:1, v-v) to give six subfractions (Fr.G-3-1 to Fr.G-3-6). Fr.G-3-2 (223 mg) was purified by ODS CC with a gradient of MeOH/H2O (from 20% to 100%) to yield four subfractions (Fr.G-3-2-1 to Fr.G-3-2-4). Fr.G-3-2-3 (25.0 mg) was purified by semi-preparative HPLC (ODS, 5 μm, 250 × 10 mm; MeOH/H2O, 65:35, v/v; 1.5 mL/min) to afford muriceidines A (1, 10.3 mg) and B (2, 9.6 mg). Fr.G-3-4 (137 mg) was purified by ODS column chromatograph with a gradient of MeOH/H2O (from 20% to 100%) to yield four subfractions (Fr.G-3-4-1 to Fr.G-3-4-4). And Fr.G-3-4-1 (9.6 mg) was further purified by semi-preparative HPLC (ODS, 5 μm, 250 × 10 mm; MeOH/H2O, 60:40, v/v; 1.5 mL/min) to afford muriceidine C (3, 4.6 mg). Similarly, muriceidone A (4, 3.7 mg) and the co-isolated known 3-formylguaiazulene (6, 9.1 mg) was obtained in subfraction Fr. […] And GA (5, 1.5 mg) was obtained in subfraction Fr. […] Chiral seperations of partial 2 [Daicel Chiralpack IB, 5 μm, 4.6 mm × 250 mm], 3 [Daicel Chiralpack IC, 5 μm, 4.6 mm × 250 mm; MeOH, 1.5 mL/min], and 4 [Daicel Chiralpack IC, 5 μm, 4.6 mm × 250 mm; Hexane/isopropyl alcohol 97:3, 1.5 mL/min] were performed on Agilent analytical HPLC system to afford optically pure (+)-2 (0.9 mg), (−)-2 (1.2 mg), (+)-3 (2.5 mg), (−)-3 (2.2 mg), (+)-4 (1.5 mg), and (−)-4 (1.6 mg) (Fig. S1).
# (§2) The cytotoxicity of Fr. A–I against K562 and HeLa cell lines and compounds 1–4 against K562, HeLa, A-549, and HL-60 human tumor cell lines were determined by MTT method with Adriamycin as a positive control. The IC50 value of each compound was calculated by Reed and Muench’s method. Experiments were repeated three times and carried out in triplicate.
# [2] = test system: HL-60 human tumor cell line; assay: Cytotoxicity assay, MTT method, HL-60; type: cell-based; conditions: HL-60 cell line
# Procedure: as §2
# [3] = test system: HeLa human tumor cell line; assay: Cytotoxicity assay, MTT method, HeLa; type: cell-based
# From the text: as §1, §2
# [4] = test system: A549 human tumor cell line; assay: Cytotoxicity assay, MTT method, A549; type: cell-based
# Procedure: The cytotoxicity of Fr. […] The IC50 value of each compound was calculated by Reed and Muench’s method. Experiments were repeated three times and carried out in triplicate.
# [5] = test system: larvae of the barnacle Balanus albicostatus; assay: Antifouling assay, barnacle larval settlement and mortality; type: in vivo, Balanus albicostatus Pilsbry; conditions: Fistulobalanus albicostatus, read-out: EC50 antifouling activity (50% of larval population inhibited to settle)
# Procedure: The antifouling activity of compounds 1–6 against larval of the barnacle Balanus albicostatus Pilsbry were determined according to the literature. EC50 was calculated as the concentration where 50% of the larval population was inhibited to settle as compared to the control while LC50 was calculated as the concentration where 50% of the larval population was dead. Experiments were repeated three times and carried out in triplicate.
# [6] = Homo sapiens, HL-60, MTT method
Structure (SMILES),"IC50 ([1]; Homo sapiens, K562, MTT method) [µM]","IC50 [2, 6] [µM]","IC50 ([3]; Homo sapiens, HeLa) [µM]",IC50 ([4]; Homo sapiens) [µM],IC50 ([1]; MTT method) [µM],IC50 ([2]; MTT method) [µM],IC50 [3] [µM],IC50 [4] [µM],EC50 [5] [µg/mL]
"Cc1cc(/C=C2/C(C(=O)O)=NCCC2O)c2c(C)ccc(C(C)C)cc1-2 (racemic) [compound 2, (±)-Muriceidine B]",> 100,> 100,> 100,> 100,,,,,
"COC1CCN=C(C(=O)O)/C1=C/c1cc(C)c2cc(C(C)C)ccc(C)c1-2 (racemic) [compound 3, (±)-Muriceidine C]",3.68,2.19,> 100,82.7,3.7,2.2,,,
"CC1=CC(=O)C2(C3C(=O)c4c(cc(C(C)C)c(C=O)c4C)C3(C)O)C(C)=CC=C(C(C)C)C=C12 (racemic) [compound 4, (±)-Muriceidone A]",> 100,> 100,,> 100,,,> 100,,
"CC1=CC(=O)C2(C3C(=O)c4c(cc(C(C)C)c(C=O)c4C)C3(C)O)C(C)=CC=C(C(C)C)C=C12 (single isomer, unassigned; (+)) [(+)-4]",,,,,88.4,54.2,42.7,> 100,
"CC1=CC(=O)C2(C3C(=O)c4c(cc(C(C)C)c(C=O)c4C)C3(C)O)C(C)=CC=C(C(C)C)C=C12 (single isomer, unassigned; (-)) [(−)-4]",,,,,> 100,> 100,40,> 100,
Cc1cc(/C=C2/C(C(=O)O)=NCC[C@@H]2O)c2c(C)ccc(C(C)C)cc1-2 [(+)-2],> 100,> 100,> 100,> 100,,,,,
CO[C@H]1CCN=C(C(=O)O)/C1=C/c1cc(C)c2cc(C(C)C)ccc(C)c1-2 [(+)-3],47.2,22.7,53.7,> 100,,,,,
Cc1cc(/C=C2/C(C(=O)O)=NCC[C@H]2O)c2c(C)ccc(C(C)C)cc1-2 [(−)-2],> 100,> 100,> 100,> 100,,,,,
CO[C@@H]1CCN=C(C(=O)O)/C1=C/c1cc(C)c2cc(C(C)C)ccc(C)c1-2 [(−)-3],53.2,5.08,53.2,> 100,,5.1,,,
"COc1cccc2c1C(=O)c1c(O)c3c(c(O)c1C2=O)C[C@@](O)(C(=O)CO)C[C@@H]3O[C@H]1C[C@H](N)[C@H](O)[C@H](C)O1 [Adramycin, Adriamycin, reference compound]",0.2,0.3,0.6,0.6,,,,,
"Cc1cc(/C=C2\CCCN=C2C(=O)O)c2c(C)ccc(C(C)C)cc1-2 [compound 1, Muriceidine A]",8.37,> 100,17.9,> 100,8.4,,,,11.9
"Cc1cc(C=O)c2c(C)ccc(C(C)C)cc1-2 [compound 6, 3-formyl guaiazulene]",,,,,,,,,2.39
